From the supplement of paper PMC10307832

Columns and labels:
Assay in all cases: relative viability (nuclei count vs DMSO), 5 days (fraction); higher = more cells survive
Phenformin = compound: N=C(N)NC(=N)NCCc1ccccc1 [Phenformin] (anchor plate); conditions: 250 µM
Procedure, shortened: (§1)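 MetaXpress counted nuclei in 4× images of lung cancer cell lines that had been fixed, permeabilised and Hoechst-stained in one step. Before that, cells in 1536-well plates were kept overnight at 37 °C, pinned with five √10-spaced library-drug doses on vehicle-anchored plates, and cultured 5 days without medium change. Viability takes treated-well nuclei over vehicle-well nuclei and uses the median across plates. Plates were accepted only at control CV below 25% and at least one doubling.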

Erlotinib = compound: C#Cc1cccc(Nc2ncnc3cc(OCCOC)c(OCCOC)cc23)c1 [Erlotinib]
Procedure, shortened: as §1

AT9283 = compound: O=C(Nc1c[nH]nc1-c1nc2ccc(CN3CCOCC3)cc2[nH]1)NC1CC1 [AT9283]
Procedure, shortened: as §1

Row | Cell Line | relative viability (Phenformin) | relative viability (Erlotinib; 0.02 µM) | relative viability (Erlotinib; 0.2 µM) | relative viability (Erlotinib; 0.6325 µM) | relative viability (Erlotinib; 2 µM) | relative viability (AT9283; 0.003 µM) | relative viability (AT9283; 0.03 µM) | relative viability (AT9283; 0.09487 µM) | relative viability (AT9283; 0.3 µM)
1 | SW 900 | 0.717 | 1 | 0.803 | 0.863 | 0.65 | 0.755 | 1.01 | 0.626 | 0.358
2 | NCI-H596 | 0.733 | 0.992 | 0.861 | 0.933 | 0.91 | 0.935 | 0.955 | 0.909 | 0.539
3 | NCI-H1944 | 0.206 | – | 0.72 | 0.916 | 0.594 | 0.903 | 0.629 | 0.367 | 0.268
4 | NCI-H1395 | 0.451 | 0.865 | 0.88 | 1.08 | 0.981 | 0.789 | 0.662 | 0.39 | 0.393
5 | NCI-H2023 | 0.43 | 0.966 | 0.89 | 0.946 | 0.758 | 1.03 | 0.935 | 0.266 | 0.138
6 | SK-LU-1 | 0.523 | 1.11 | 1.11 | 1.13 | 0.907 | 1.06 | 0.691 | 0.312 | 0.335
7 | NCI-H661 | 0.285 | 1 | 0.939 | 1.01 | 0.81 | 0.981 | 0.491 | 0.388 | 0.39
8 | NCI-H322M | 0.791 | 0.825 | 0.703 | 0.574 | 0.513 | 0.817 | 0.67 | 0.469 | 0.474
9 | LCLC-97TM1 | 0.391 | 1.07 | 1.14 | 1.23 | 0.972 | 0.841 | 0.469 | 0.159 | 0.112
10 | NCI-H2405 | 0.379 | 0.986 | 1 | 1.12 | 0.956 | 1 | 0.965 | 0.519 | 0.256
11 | NCI-H647 | 0.554 | 0.878 | 0.829 | 1.08 | 0.912 | 0.902 | 0.434 | 0.167 | 0.11
12 | NCI-H650 | 0.464 | 0.827 | 0.974 | 1.06 | 0.806 | 0.835 | 0.883 | 0.633 | 0.204
13 | A549 | 0.165 | 0.918 | 0.936 | 0.963 | 0.879 | 0.917 | 0.458 | 0.125 | 0.0647
14 | NCI-H1703 | – | 1.01 | 0.911 | 1.02 | 0.989 | 0.957 | 0.31 | 0.335 | 0.28
15 | LU99A | 0.886 | 0.932 | 0.952 | 0.913 | 0.916 | 0.88 | 0.477 | 0.253 | 0.186
16 | EKVX | 0.231 | 0.962 | 0.587 | 0.43 | 0.215 | 0.915 | 0.858 | 0.629 | 0.324
17 | NCI-H1648 | – | 0.83 | 0.704 | 0.608 | 0.439 | 0.765 | 0.886 | 0.493 | 0.312
18 | NCI-H2087 | 0.453 | 1.03 | 1.03 | 1.07 | 0.879 | 0.988 | 0.63 | 0.269 | 0.16
19 | HCC-827 | 0.4 | 0.549 | 0.185 | 0.177 | 0.208 | 0.985 | 0.855 | 0.618 | 0.358
